Changes are numbered by the printed parent chain. “And” between values parts separate entries of the source, which are not always exact repeats. Identical values can stand only once. Like-named read-outs stand apart in the source and are kept apart here. One block for each molecule: values may come before it.
Assays:
F666A mutant TRPV3 = target: T1, F666A mutant TRPV3 (Mus musculus, UniProt Q8K424, F666A); assay: Fura-2 ratiometric Ca2+ uptake, inhibition of 2-APB-evoked response; format: cell-based; conditions: for F340/F380 change normalized to maximal value in the absence of osthole: F666A
T1 construct: expressed in transfected cells; host or cells: HEK 293 S GnTI- cells (baculovirus transduction)
T1 sequence (Q8K424 1-791 F666A): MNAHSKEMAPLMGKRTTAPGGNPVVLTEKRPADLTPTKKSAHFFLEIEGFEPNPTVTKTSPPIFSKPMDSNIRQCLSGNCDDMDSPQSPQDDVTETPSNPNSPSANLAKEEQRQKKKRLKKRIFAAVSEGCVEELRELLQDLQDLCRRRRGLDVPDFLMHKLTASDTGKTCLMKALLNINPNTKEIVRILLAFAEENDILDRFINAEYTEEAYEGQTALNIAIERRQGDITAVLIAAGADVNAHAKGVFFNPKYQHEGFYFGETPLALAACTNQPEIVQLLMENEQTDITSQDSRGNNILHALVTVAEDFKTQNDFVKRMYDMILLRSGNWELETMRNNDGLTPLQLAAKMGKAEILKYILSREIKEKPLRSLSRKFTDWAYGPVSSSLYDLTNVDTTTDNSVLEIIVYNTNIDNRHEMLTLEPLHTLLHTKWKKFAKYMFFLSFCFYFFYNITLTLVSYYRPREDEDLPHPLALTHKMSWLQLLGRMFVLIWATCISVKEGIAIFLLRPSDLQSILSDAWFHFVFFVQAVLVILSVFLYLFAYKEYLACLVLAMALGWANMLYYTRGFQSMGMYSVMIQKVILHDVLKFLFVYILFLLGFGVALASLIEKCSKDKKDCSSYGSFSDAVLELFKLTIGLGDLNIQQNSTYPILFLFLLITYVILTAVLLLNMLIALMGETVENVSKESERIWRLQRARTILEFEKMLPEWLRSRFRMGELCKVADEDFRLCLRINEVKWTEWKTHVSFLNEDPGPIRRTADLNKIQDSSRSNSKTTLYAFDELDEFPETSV
Method: GFP-free C-terminally strep-tagged wild-type TRPV3, TRPV3-Y564A, TRPV3-Y594A, TRPV3-F633A, TRPV3-I663W, and TRPV3-F666A were expressed in HEK 293 S GnTI^− cells as previously described[41],[42],[53]. In short, 48 h after transduction, 1-ml aliquots of cell suspension were collected by centrifugation at 550 g for 5 min using an Eppendorf 5424 centrifuge. The cells were resuspended in the pre-warmed modified HEPES-buffered saline (HBS) containing 118 mM NaCl, 4.8 mM KCl, 1 mM MgCl2, 5 mM D-glucose, and 10 mM HEPES pH 7.4 and 5 μg/ml Fura-2 AM (Thermo Fisher Scientific) and incubated for 45 min at 37 °C. The Fura-2-loaded cells were then centrifuged for 5 min at 550 g, resuspended in the pre-warmed, modified HBS and incubated again for 30 min at 37 °C in the dark. The cells were subsequently pelleted and washed twice in the modified HBS. The washed cell pellets were kept on ice in the dark before taking an aliquot for fluorescence measurements. […] We used the lower CaCl2 concentration than before[42],[28] (2.5 mM) to minimize non-specific effects, which often appeared as a drift in the Fura-2 signal at high Ca^2+ concentration, presumably due to cell death as a result of calcium overload. Fluorescence measurements were conducted using a QuantaMaster 40 spectrofluorometer (Photon Technology International) at room temperature in a quartz cuvette under constant stirring. After 60 s since the beginning, the recording was paused and 2-APB was added. After the addition of 2-APB, the recording was continued for the additional 140 s. Changes in intracellular Ca^2+ were measured by taking the ratio of fluorescence emitted at 510 nm at the excitation wavelength of 340 nm and 380 nm. […] The data were processed using Origin 9.0 (OriginLab) software.

wild-type mouse TRPV3 = target: T2, wild-type mouse TRPV3 (Mus musculus, UniProt Q8K424); conditions: cited from earlier work; for F340/F380 change normalized to maximal value in the absence of osthole: WT, published before
T2 construct: expressed in transfected cells; host or cells: HEK 293 S GnTI- cells (baculovirus transduction)
T2 sequence (Q8K424 1-791): T1 sequence (Q8K424 1-791 F666A) with A666F

[1] = target: the molecule itself; assay: cryo-EM structure; TRPV3 reconstituted in cNW30 nanodiscs with soybean lipids; 150 mM NaCl, 20 mM Tris pH 8.0, 1 mM βME, 100 μM dyclonine plus 100 μM more before freezing; C4 symmetry, 3.16 Å
[2] = osthole Conc 1, single experiments

- F340/F380 change normalized to maximal value in the absence of osthole (F666A mutant TRPV3; [2]): 1.064 and 1.053 and 0.962
- F340/F380 change normalized to maximal value in the absence of osthole (F666A mutant TRPV3; osthole Conc 3, single experiments): 0.8581 and 0.9473 and 0.9415
- F340/F380 change normalized to maximal value in the absence of osthole (F666A mutant TRPV3; osthole Conc 10, single experiments): 0.7679 and 0.9394 and 0.7809
- F340/F380 change normalized to maximal value in the absence of osthole (F666A mutant TRPV3; osthole Conc 30, single experiments): 0.5836 and 0.4944 and 0.6286
- F340/F380 change normalized to maximal value in the absence of osthole (F666A mutant TRPV3; osthole Conc 100, single experiments): 0.1362 and 0.1904
- IC50 (F666A mutant TRPV3; HEK 293 GnTI- cells, 200 µM 2-APB after pre-incubation with inhibitor, n = 3): 33.1 ± 3.8 µM
- nHill of inhibition curve, F666A (F666A mutant TRPV3; logistic fit, n = 3): 1.37 ± 0.19
Molecule: COc1ccc2ccc(=O)oc2c1CC=C(C)C [osthole]
- F340/F380 change normalized to maximal value in the absence of osthole (wild-type mouse TRPV3; [2]): 0.9502 and 0.9764 and 1.106
- F340/F380 change normalized to maximal value in the absence of osthole (wild-type mouse TRPV3; osthole Conc 2.5, single experiments): 0.949 and 1.067
- F340/F380 change normalized to maximal value in the absence of osthole (wild-type mouse TRPV3; osthole Conc 5, single experiments): 0.9795 and 0.8169 and 0.895
- F340/F380 change normalized to maximal value in the absence of osthole (wild-type mouse TRPV3; osthole Conc 8, single experiments): 0.9193 and 0.8591 and 0.9872
- F340/F380 change normalized to maximal value in the absence of osthole (wild-type mouse TRPV3; osthole Conc 12.5, single experiments): 0.6517 and 0.6914 and 0.735
- F340/F380 change normalized to maximal value in the absence of osthole (wild-type mouse TRPV3; osthole Conc 18, single experiments): 0.5621 and 0.5685 and 0.5403
- F340/F380 change normalized to maximal value in the absence of osthole (wild-type mouse TRPV3; osthole Conc 25, single experiments): 0.4148 and 0.5672 and 0.4994
- F340/F380 change normalized to maximal value in the absence of osthole (wild-type mouse TRPV3; osthole Conc 50, single experiments): 0.161 and 0.164 and 0.15 and 0.2574
- nHill of osthole inhibition curve, wild-type TRPV3 (wild-type mouse TRPV3; n = 4, published before): 1.84 ± 0.14
- IC50 (wild-type mouse TRPV3; n = 4, published before, read-out: IC50, inhibition of wild-type TRPV3 by osthole): 20.5 ± 0.5 µM

B1: Mouse TRPV3 (vanilloid-subfamily member 3 TRP channel) (natural protein)
chain: AHSKEMAPLMGKRTTAPGGNPVVLTEKRPADLTPTKKSAHFFLEIEGFEPNPTVTKTSPPIFSKPMDSNIRQCLSGNCDDMDSPQSPQDDVTETPSNPNSPSANLAKEEQRQKKKRLKKRIFAAVSEGCVEELRELLQDLQDLCRRRRGLDVPDFLMHKLTASDTGKTCLMKALLNINPNTKEIVRILLAFAEENDILDRFINAEYTEEAYEGQTALNIAIERRQGDITAVLIAAGADVNAHAKGVFFNPKYQHEGFYFGETPLALAACTNQPEIVQLLMENEQTDITSQDSRGNNILHALVTVAEDFKTQNDFVKRMYDMILLRSGNWELETMRNNDGLTPLQLAAKMGKAEILKYILSREIKEKPLRSLSRKFTDWAYGPVSSSLYDLTNVDTTTDNSVLEIIVYNTNIDNRHEMLTLEPLHTLLHTKWKKFAKYMFFLSFCFYFFYNITLTLVSYYRPREDEDLPHPLALTHKMSWLQLLGRMFVLIWATCISVKEGIAIFLLRPSDLQSILSDAWFHFVFFVQAVLVILSVFLYLFAYKEYLACLVLAMALGWANMLYYTRGFQSMGMYSVMIQKVILHDVLKFLFVYILFLLGFGVALASLIEKCSKDKKDCSSYGSFSDAVLELFKLTIGLGDLNIQQNSTYPILFLFLLITYVILTFVLLLNMLIALMGETVENVSKESERIWRLQRARTILEFEKMLPEWLRSRFRMGELCKVADEDFRLCLRINEVKWTEWKTHVSFLNEDPGPIRRTADLNKIQDSSRSNSKTTLYAFDELDEFPETSV
notes: TRPV3, mouse; model built for residues 118-756, leaving out 462-470 and 611-621
- stoichiometry N [1]: 4
